Key:
[1] = physchem; settings: octanol/water
[2] = Apparent permeability across human Caco-2 cells; assay type: ADME, cell-based

| Compound | logD [1] | Papp [2] |
| --- | --- | --- |
| CN1CCC(c2cn(-c3ccc(F)cc3)c3ccc(-c4cncnc4)cc23)CC1 | 1.9 | 13 ×10⁻⁶ cm/s |
| Cn1nnc(-c2ccc3c(c2)c(C2CCN(CCN4CCNC4=O)CC2)cn3-c2ccc(F)cc2)n1 | 3.06 | 12 ×10⁻⁶ cm/s |
| CC(=O)NCc1ccc2c(c1)C(N1CCN(C)CC1)Cc1ccccc1S2 (racemic) | 2.65 | 33 ×10⁻⁶ cm/s |
| CC(C)C(=O)NCc1ccc2c(c1)C(N1CCN(C)CC1)Cc1ccccc1S2 (racemic) | 3.1 | 57 ×10⁻⁶ cm/s |
| CCN1CCC[C@H]1CNC(=O)c1c(O)c(Cl)cc(Cl)c1OC [RACLOPRIDE] |  | 66 ×10⁻⁶ cm/s |

From ChEMBL document CHEMBL1255222, “Exploring the neuroleptic substituent in octoclothepin: potential ligands for positron emission tomography with subnanomolar affinity for α(1)-adrenoceptors” (J Med Chem, 2010)
